In patent publication US20110027325A1, “ORALLY-ADMINISTERED AGENT” (Lintec Corporation, priority 2008, published 2011):

Assay: Viscosity of aqueous solution, E-type viscometer
Assay type: physicochemical
Settings: 37° C.
Procedure: Tables 1 and 2 shown the constituent materials of the respective layers of the orally-administered agents obtained in the respective Examples and the respective Comparative Examples and the contents thereof. […] Furthermore, the viscosity of the water absorption promoter in the Table 1 and the viscosity of the antiadhesive agent in the Table 2 denote a viscosity at 37° C. of an aqueous solution of 5 mass % of the water absorption promoter and the antiadhesive agent, respectively. Each viscosity was measured with an E-type viscometer (a product of Tokimec, Inc.).

OC[C@@H](O)[C@@H](O)[C@H](O)[C@H](O)CO [Man, mannitol]
Viscosity of antiadhesive agent (aqueous solution of 5 mass % of the antiadhesive agent): 0.87 mPa · s
Viscosity of water absorption promoter (aqueous solution of 5 mass % of the water absorption promoter): 0.87 mPa · s
